The values below come from patent publication US20240269095A1, “Rapid Onset Therapeutic Ketosis Enabled by D-BetaHydroxyButyric Acid Systems, Compounds and Methods for Stroke medication co-administration” (American Ketone Therapeutics LLC, priority 2022, published 2024).

A short description of data set [1]: Blood ketone level by Abbott blood ketone meter / test strip after oral free D-BHB. In kind it is in vivo, human. The text has this: FIG. 9 is a graphical illustration of D-BHB exogenous ketone blood levels. The above Abbot blood ketone meter evidenced by Abbott blood test strip depicts the rapid rise in blood ketone levels from 0.1 mmol/L (absence of ketosis) to 2.7 mmol/L (ketosis) after oral bolus administration of 15 grams of bioidentical free D-BetaHydroxyButyric Acid. The ketone levels depicted are attained in the absence of a salt as well as without ester bonds. It is the free acid D-BHB exogenously administered which is bio-identical to the endogenous D-BHB free acid generated by the human body. The bioidentical ketone body D-BHB is first and foremost an energy source, which is directly and preferentially metabolized by the brain. D-BHB is also active as a signaling mechanism and neuro-inflammation reduction agent, resulting in broad and beneficial brain bioenergy related benefits.
FIG. 10 is a graphical illustration of D-BHB exogenous ketone blood levels. FIG. 10 details rapid ketosis within 45 minutes confirmed by Abbott blood test strip after 10 g D-BHB with palatability agent administered by oral drink. Blood ketone levels document rise from 0.2 mmol/L to 1.8 mmol/L and 0.6 mmol/L to 1.9 mmol/L in a variety of test subjects. FIG. 10 reinforces the fact that supplementation by utilizing free D only BetaHydroxyButyric Acid without ketone salt or ketone ester is a reliable, reproducible method and system for rapid ketone level increase for stroke recovery and maintenance. While amounts of free D only BetaHydroxyButyric Acid taken for stroke effects may vary, it is an anticipated preferred embodiment that levels between 5 and 30 grams of D only BetaHydroxyButyric Acid are taken as needed for optimum recovery. Alternate embodiments may include lower or higher amounts, however, experimental evidence has confirmed optimal administration in this range for a wide variety of other applications.

A short description of data set [2]: Continuous glucose monitoring (Abbot Libre CGM) with carbohydrate challenge. In kind it is in vivo, human. The conditions noted are these: 10 g given 45 minutes before 50 g carbohydrate ingestion; compared with unsupplemented ingestion. The text has this:
FIG. 11 is a graphical illustration of continuous monitoring of body glucose levels. FIG. 11 depicts continuous glucose monitoring levels with carbohydrate challenge documented by Abbot Libre Continuous Glucose Monitoring (CGM) device. In this illustrative embodiment, glucose levels from a 50 g carbohydrate ingestion are depicted unaided by free D-BetaHydroxyButyric Acid on the left and repeated the following day with two 50 g carbohydrate ingestions accompanied by 10 g free D-BetaHydroxyButyric Acid administered 45 minutes before the carbohydrate insult. […] As free D-BetaHydroxyButyric Acid can lower glucose while rapidly increasing ketone levels, it is believed that obtaining high ketones while lowering glucose will yield additional stroke recovery benefits for high glucose sensitive individuals suffering from stroke.

Data set [3] can be described thus: Continuous Ketone Meter (CKM) monitoring of body ketone levels and deep sleep. In kind it is in vivo, human. The conditions noted are these: 5 grams consumed 45 minutes prior to bedtime. From the text:
FIG. 12 is a graphical illustration of continuous monitoring of body ketone levels resulting in improved deep sleep time due to enhanced D-BHB levels according to the claimed invention. It is noteworthy that consumption of even small amounts of free D-BetaHydroxy Butyric Acid can give rise to therapeutic ketosis levels as measured by Continuous Ketone Meter (CKM). […] While free D-BetaHydroxyButyric Acid is not a sedative, even small amounts can greatly improve deep sleep quantity and quality. It is an intended and foreseeable embodiment application to increase deep sleep with free D-BetaHydroxyButyric Acid with the aim of improving stroke recovery and enhanced brain resiliency.

Data set [4] can be described thus: Stated properties of free D-BHB (Table 1). On the set-up: species or system human.
For data set [5] the following is noted: compared with ketone salts, literature table; cited from earlier work.

In data set [1] (10 g D-BHB with palatability agent by oral drink), `C[C@@H](O)CC(=O)O` [free D-BetaHydroxyButyric Acid, D-β-HydroxyButyric Acid] came in with a time to ketosis of at most 45 min. For the same compound, in data set [1] (10 g with palatability agent by oral drink, test subject rising from 0.2 mmol/L), the “blood ketone level after administration” value was determined as 1.8 mmol/L. The “blood ketone level after administration” value in data set [1] (10 g with palatability agent by oral drink, test subject rising from 0.6 mmol/L) came out at 1.9 mmol/L. Besides, the “blood ketone level after administration” value in data set [1] (oral bolus of 15 grams, rise from 0.1 mmol/L (absence of ketosis)) is 2.7 mmol/L. In addition, the “glucose spike after carbohydrate ingestion” value in data set [2] is on record as “rapid glucose spike depicted in the unsupplemented ingestion is not found”. Moreover, in data set [3], the deep sleep quantity result is recorded as “enhance the quantity of deep sleep obtained” and the “increase in ketone level (CKM)” value is recorded as 1.5 mmol/L. Also, in data set [4], the “Induces Ketoacidosis” value was “Induces Ketoacidosis: No” and the Metabolism entry is “Metabolism: Rapid, minutes”.

With `C[C@@H](O)CCOC(=O)C[C@@H](C)O` [ketone ester, (R)-3-hydroxybutyl (R)-3-hydroxybutyrate], the ketone level response result in data set [5] is “higher ketone level response”.
